# Reference: publication PMC6100082, “Pyridine-Ureas as Potential Anticancer Agents: Synthesis and In Vitro Biological Evaluation” (Molecules : A Journal of Synthetic Chemistry and Natural …, 2018)
# Like-named read-outs stand apart in the source and are kept apart here.
# Key:
# Type in all cases: cell-based, human
# [1] = tested on: breast cancer MCF-7 cell line; test: In vitro anti-proliferative activity, MTT assay; conditions: MCF-7, MTT
# Protocol: The in vitro anti-proliferative activity of the newly prepared pyridine-ureas 8a–n was examined against breast cancer MCF-7 cell line. The assay was carried out, as triplicates, utilizing the 3-(4,5-dimethylthiazol-2-yl)-2,5-diphenyltetrazolium bromide (MTT) colorimetric assay as described by T. Mosmann. Doxorubicin and Sorafenib were included in this assay as a reference drug.
# MCF-7 (human breast cancer cell line) and WI-38 (human lung fibroblast cell line), were obtained from American Type Culture Collection (Manassas, VA, USA). The cells were propagated in DMEM and supplemented with 10% heat-inactivated FBS (Hyclone), 10 μg/mL of insulin (Manufacturer, Sigma, St. Louis, MO, USA), and 1% penicillin-streptomycin. MTT assay was utilized to examine the in vitro anti-proliferative activity of the newly prepared ureas following the reported procedures. […] The data presented are the mean of at least three separate experiments.
# SN12C = test: NCI one-dose SRB assay (Renal Cancer)
# Protocol: (§1) The structures of all the newly prepared pyridine-ureas 8a–n were submitted to the National Cancer Institute (NCI) Developmental Therapeutic Program. Eight compounds 8b, 8d, 8e, 8i, 8j and 8l–n were selected to be examined for their in vitro growth inhibitory activity. The anticancer assays were carried out according to the protocol of the Drug Evaluation Branch, NCI, Bethesda. The selected pyridine-ureas were tested at one dose primary anticancer assay against a panel of approximately 58 cancer lines (concentration 10^−5 M). The tested human cancer cell lines emerged from nine different cancer subtypes: leukemia, colon, melanoma, ovarian, lung, CNS, renal, breast and prostate cancers. The sulforhodamine B (SRB) protein assay was adopted to estimate the cell viability and growth. The results were reported as mean-graph of the percentage growth of the treated cells, and presented as percentage growth inhibition (GI%) caused by the test compounds (Table 2).
# (§2) The anticancer assays were performed in accordance with the protocol of the Drug Evaluation Branch, NCI, Bethesda. A 48 h drug exposure protocol was used and sulforhodamine B (SRB) protein assay was applied to estimate the cell viability and growth, as reported earlier.
# 786-0 = test: NCI one-dose SRB assay (Renal Cancer)
# Protocol: as §1, §2
# A498 = test: NCI one-dose SRB assay (Renal Cancer)
# Protocol: as §1, §2
# TK-10 = test: NCI one-dose SRB assay (Renal Cancer)
# Protocol: as §1, §2
# UO-31 = test: NCI one-dose SRB assay (Renal Cancer)
# Protocol: as §1, §2
# RXF 393 = test: NCI one-dose SRB assay (Renal Cancer)
# Protocol: as §1, §2
# SK-MEL-2 = test: NCI one-dose SRB assay (Melanoma)
# Protocol: as §1, §2
# UACC-257 = test: NCI one-dose SRB assay (Melanoma)
# Protocol: as §1, §2
# MDA-MB-435 = test: NCI one-dose SRB assay (Melanoma)
# Protocol: as §1, §2
# SK-MEL-5 = test: NCI one-dose SRB assay (Melanoma)
# Protocol: as §1, §2
# M14 = test: NCI one-dose SRB assay (Melanoma)
# Protocol: as §1, §2
# LOX IMVI = test: NCI one-dose SRB assay (Melanoma)
# Protocol: as §1, §2
# UACC-62 = test: NCI one-dose SRB assay (Melanoma)
# Protocol: as §1, §2
# MALME-3M = test: NCI one-dose SRB assay (Melanoma)
# Protocol: as §1, §2
# SK-MEL-28 = test: NCI one-dose SRB assay (Melanoma)
# Protocol: as §1, §2
# HCT-116 = test: NCI one-dose SRB assay (Colon Cancer)
# Protocol: as §1, §2
# COLO 205 = test: NCI one-dose SRB assay (Colon Cancer)
# Protocol: as §1, §2
# HT29 = test: NCI one-dose SRB assay (Colon Cancer)
# Protocol: as §1, §2
# HCT-15 = test: NCI one-dose SRB assay (Colon Cancer)
# Protocol: as §1, §2
# KM12 = test: NCI one-dose SRB assay (Colon Cancer)
# Protocol: as §1, §2
# SW-620 = test: NCI one-dose SRB assay (Colon Cancer)
# Protocol: as §1, §2
# HCC-2998 = test: NCI one-dose SRB assay (Colon Cancer)
# Protocol: as §1, §2
substance,measurement,setting,value
"1-(4-Chloro-4-(trifluoromethyl)cyclohexa-2,5-dien-1-yl)-3-(6-(3,4-dimethoxyphenyl)-2-methylpyridin-3-yl)urea [Compound 8l]",IC50,"[1]; 48 h of incubation, read-out: IC50 48 h",7.03 ± 0.61 µM
same,IC50,"[1]; 72 h of incubation, read-out: IC50 72 h",21.4 ± 2.03 µM
same,Percentage growth inhibition (GI%),SN12C; 10 μM,22%
same,Growth Percent,SN12C; 1.00E-5 Molar,78.52%
same,Percentage growth inhibition (GI%),"786-0; 786-0, 10 μM",25%
same,Growth Percent,"786-0; 786-0, 1.00E-5 Molar",75.10%
same,Percentage growth inhibition (GI%),"A498; A498, 10 μM",43%
same,Growth Percent,"A498; A498, 1.00E-5 Molar",57.69%
same,Percentage growth inhibition (GI%),"TK-10; TK-10, 10 μM",12%
same,Growth Percent,"TK-10; TK-10, 1.00E-5 Molar",88.19%
same,Percentage growth inhibition (GI%),"UO-31; UO-31, 10 μM",28%
same,Growth Percent,"UO-31; UO-31, 1.00E-5 Molar",72.37%
same,Percentage growth inhibition (GI%),"RXF 393; RXF 393, 10 μM",28%
same,Growth Percent,"RXF 393; RXF 393, 1.00E-5 Molar",72.65%
same,Percentage growth inhibition (GI%),"SK-MEL-2; SK-MEL-2, 10 μM",13%
same,Growth Percent,"SK-MEL-2; SK-MEL-2, 1.00E-5 Molar",87.87%
same,Percentage growth inhibition (GI%),"UACC-257; UACC-257, 10 μM",44%
same,Growth Percent,"UACC-257; UACC-257, 1.00E-5 Molar",56.26%
same,Percentage growth inhibition (GI%),"MDA-MB-435; MDA-MB-435, 10 μM",23%
same,Growth Percent,"MDA-MB-435; MDA-MB-435, 1.00E-5 Molar",77.84%
same,Percentage growth inhibition (GI%),"SK-MEL-5; SK-MEL-5, 10 μM",37%
same,Growth Percent,"SK-MEL-5; SK-MEL-5, 1.00E-5 Molar",63.85%
same,Percentage growth inhibition (GI%),"M14; M14, 10 μM",53%
same,Growth Percent,"M14; M14, 1.00E-5 Molar",47.02%
same,Percentage growth inhibition (GI%),LOX IMVI; 10 μM,22%
same,Growth Percent,LOX IMVI; 1.00E-5 Molar,78.57%
same,Percentage growth inhibition (GI%),"UACC-62; UACC-62, 10 μM",23%
same,Growth Percent,"UACC-62; UACC-62, 1.00E-5 Molar",77.31%
same,Percentage growth inhibition (GI%),MALME-3M; 10 μM,10%
same,Growth Percent,MALME-3M; 1.00E-5 Molar,90.89%
same,Percentage growth inhibition (GI%),"SK-MEL-28; SK-MEL-28, 10 μM",27%
same,Growth Percent,"SK-MEL-28; SK-MEL-28, 1.00E-5 Molar",73.58%
same,Percentage growth inhibition (GI%),"HCT-116; HCT-116, 10 μM",55%
same,Growth Percent,"HCT-116; HCT-116, 1.00E-5 Molar",45.30%
same,Percentage growth inhibition (GI%),"COLO 205; COLO 205, 10 μM",- (Only GI% higher than 10% are shown)
same,Growth Percent,"COLO 205; COLO 205, 1.00E-5 Molar",93.52%
same,Percentage growth inhibition (GI%),"HT29; HT29, 10 μM",44%
same,Growth Percent,"HT29; HT29, 1.00E-5 Molar",56.20%
same,Percentage growth inhibition (GI%),"HCT-15; HCT-15, 10 μM",51%
same,Growth Percent,"HCT-15; HCT-15, 1.00E-5 Molar",49.62%
same,Percentage growth inhibition (GI%),"KM12; KM12, 10 μM",30%
same,Growth Percent,"KM12; KM12, 1.00E-5 Molar",70.44%
same,Percentage growth inhibition (GI%),"SW-620; SW-620, 10 μM",10%
same,Growth Percent,"SW-620; SW-620, 1.00E-5 Molar",90.92%
same,Percentage growth inhibition (GI%),"HCC-2998; HCC-2998, 10 μM",- (Only GI% higher than 10% are shown)
same,Growth Percent,"HCC-2998; HCC-2998, 1.00E-5 Molar",93.63%
